Values quoted from earlier work, collected in PMC12150326 (The Journal of Organic Chemistry, 2025).
“And” between values parts separate entries of the source, which are not always exact repeats. Equal entries are not always repeated. Where two headings read alike, the source gives them in different places.

Tests used:
Set-up in all cases: method as in NCI-60 database
HL-60(TB) = HL-60(TB) ref NCI-60 database, cited from earlier work
HOP-62 = HOP-62 ref NCI-60 database, cited from earlier work
HCT-15 = HCT-15 ref NCI-60 database, cited from earlier work
KM12 = details: cited from earlier work
SK-OV-3 = SK-OV-3 ref NCI-60 database, cited from earlier work
SN12C = SN12C ref NCI-60 database, cited from earlier work
MDA-MB-231/ATCC = MDA-MB-231/ATCC ref NCI-60 database, cited from earlier work
MDA-N = MDA-N ref NCI-60 database, cited from earlier work
OVCAR-3 = OVCAR-3 ref NCI-60 database, cited from earlier work
[1] = KM12 ref NCI-60 database, listed as 757/9

Compound: COc1cc2c(c(OC)c1OC)-c1ccc(OC)c(=O)cc1[C@@H](NC(C)=O)CC2 [Colchicine, (−)-Colchicine]
- GI50 (HL-60(TB)): 0.01 µM
- Log10GI50 (HL-60(TB)): -7.89 Molar
- Log10LC50 (HL-60(TB)): > -4.00 Molar
- Log10GI50 (HL-60(TB); listed as 757/1): -7.58 Molar
- Log10GI50 (HL-60(TB); listed as 757/21): < -8.00 Molar and -7.89 Molar
- Log10LC50 (HOP-62): > -4.00 Molar
- Log10TGI (HOP-62): > -4.00 Molar
- Log10GI50 (HOP-62; listed as 757/9): -7.43 Molar
- GI50 (HCT-15): 0.21 µM
- Log10GI50 (HCT-15): -6.68 Molar
- Log10LC50 (HCT-15; listed as 757/9): -5.60 Molar
- Log10LC50 (HCT-15; listed as 757/21): > -4.00 Molar
- GI50 (KM12; KM12 (printed KM29) ref NCI-60 database): 0.04 µM
- Log10GI50 (KM12; KM12 ref NCI-60 database): -7.35 Molar
- Log10GI50 (KM12; KM12 ref NCI-60 database, listed as 757/1): -7.65 Molar
- Log10GI50 (KM12; [1]): -7.67 Molar
- Log10LC50 (KM12; [1]): -7.04 Molar
- Log10TGI (KM12; [1]): -7.95 Molar
- Log10LC50 (KM12; KM12 ref NCI-60 database, listed as 757/21): > -4.00 Molar
- Log10LC50 (SK-OV-3): > -4.00 Molar
- Log10GI50 (SK-OV-3; listed as 757/1): -4.43 Molar
- Log10TGI (SK-OV-3; listed as 757/1): -4.07 Molar and -4.21 Molar
- Log10GI50 (SK-OV-3; listed as 757/9): -7.55 Molar and -7.81 Molar
- Log10TGI (SK-OV-3; listed as 757/9): -7.17 Molar
- Log10GI50 (SK-OV-3; listed as 757/21): -7.71 Molar and -7.65 Molar
- GI50 (SN12C): 0.054 µM
- Log10GI50 (SN12C): -7.27 Molar
- Log10LC50 (SN12C): > -4.00 Molar
- Log10GI50 (SN12C; listed as 757/9): < -8.00 Molar
- Log10GI50 (SN12C; listed as 757/21): -7.33 Molar and -7.28 Molar and -7.27 Molar
- Log10TGI (SN12C; listed as 757/21): > -4.00 Molar and -4.21 Molar
- GI50 (MDA-MB-231/ATCC): 7.08 µM
- Log10GI50 (MDA-MB-231/ATCC): -5.15 Molar
- Log10LC50 (MDA-MB-231/ATCC): > -4.00 Molar
- Log10TGI (MDA-MB-231/ATCC): > -4.00 Molar
- Log10GI50 (MDA-MB-231/ATCC; listed as 757/9): < -8.00 Molar and -7.78 Molar
- Log10GI50 (MDA-MB-231/ATCC; listed as 757/21): -5.15 Molar
- Log10GI50 (MDA-N): < -8.00 Molar
- Log10LC50 (MDA-N): > -4.00 Molar
- Log10TGI (MDA-N; listed as 757/9): < -8.00 Molar and -7.91 Molar
- Log10TGI (MDA-N; listed as 757/21): -4.25 Molar
- Log10GI50 (OVCAR-3; listed as 757/1): -7.58 Molar
- Log10LC50 (OVCAR-3; listed as 757/1): > -4.00 Molar
- Log10TGI (OVCAR-3; listed as 757/1): -7.12 Molar
- Log10GI50 (OVCAR-3; listed as 757/9): -7.81 Molar
- Log10LC50 (OVCAR-3; listed as 757/9): < -8.00 Molar
- Log10TGI (OVCAR-3; listed as 757/9): -7.44 Molar
- Log10GI50 (OVCAR-3; listed as 757/21): < -8.00 Molar and -7.73 Molar
